From a melting point compilation (Tetko et al.; mined from patent text by program, amines drawn as free bases though some values may be those of a salt)

Row | SMILES | melting point
1 | Cc1cc([N+](=O)[O-])c(Cl)c([N+](=O)[O-])c1S(N)(=O)=O | 205 to 215 °C
2 | Cc1cc(C)c(Cc2ccc(C(C)C)cc2)c(OCC(=O)O)c1 | 104 to 105 °C
3 | CC(C)Cc1cccc(-c2nc(C(C)C)n(C)n2)n1 | 80.1 °C
4 | Cc1cccc(C2=CCN(CCCn3c(=O)[nH]c4c(Cl)cccc4c3=O)CC2)c1 | 214 to 216 °C
5 | Cc1cc(C)nc(NC(N)=S)n1 | > 260 °C
6 | CCOC(CCn1c(-c2ccc(F)cc2)c(-c2ccccc2)c(C(=O)Nc2ccccc2)c1C(C)C)OCC | 125 to 128 °C
7 | O=C(O)c1cc2c(s1)C1CCC2C1 (centres undefined) | 183 to 184 °C
8 | CCOC(=O)/C=C/C(C)(C)NC(=O)OC(C)(C)C | 40 to 41 °C
9 | Cn1c([N+](=O)[O-])cnc1C1=NO[C@@H]2CCCCCCCCCC[C@@H]12 (relative stereo) | 121 to 122 °C
10 | CC(=O)c1ccc(C)c(N=C2NCCN2)c1 | 160 to 162 °C
11 | CCc1c(-c2ccc(OCc3ccccc3)cc2)c2ccc3ccc(CO)c1n32 | 99 to 102 °C
12 | CN(CCO)c1nccc(Oc2ccc(NC(=O)c3cc(F)cc(N4CCOCC4)c3)c3ccccc23)n1 | 100 to 102 °C
13 | CC1CCN(c2cc(C(C)(C)C)on2)C1=O (centres undefined) | 89 to 90 °C
14 | Fc1ccccc1C1=NCc2cncnc2-c2ccc(Cl)cc21 | 122 to 124 °C
15 | COc1ccc(C(=O)Nc2c(Cl)cc(N)cc2Cl)cc1OC1CCCC1 | 170 to 172 °C
16 | C=CCn1c(=O)ccc2cc(F)c(-n3c(=O)cc(C(F)(F)F)n(C)c3=O)cc21 | 178 to 179 °C
17 | CN1CC=C(c2c[nH]c3ccc(C[C@H]4COC(=O)N4)cc23)CC1 | 225 to 227 °C
18 | CCNC(=O)CC1CCN(Cc2cnc3c(C)c(NC(=O)c4ccc(-c5ccc(F)cc5)cc4)ccc3c2)CC1 | 243 to 245 °C
19 | Cn1c(CO)cnc1[N+](=O)[O-] | 142 to 144 °C
20 | Cc1nc(Cn2nc(-c3c(-c4ccccc4)nn4ccccc34)ccc2=O)cs1 | 196 to 198 °C

Row | SMILES | melting point
21 | NC(=O)COc1cc(C(F)(F)F)cc(C(F)(F)F)c1 | 139 to 141 °C
22 | O=C(Oc1c(Cl)cc(Cl)c(Cl)c1Cl)c1ccc(CCl)cc1 | 143 to 149 °C
23 | CC1(C)CC(=O)C(SCc2ccc([N+](=O)[O-])cc2)=C(O)C1 | 140 to 142 °C
24 | CCCCC1CSC(C(=O)Nc2c(SC)cc(C)nc2SC)c2cc(OC)c(OC)cc2C1 (centres undefined) | 143 to 145 °C
25 | CC1=C(CC(NC(=O)c2ccc(Cl)cc2)NC(=N[N+](=O)[O-])Nc2cccnc2)C(C)(C)CCC1 (centres undefined) | 217 to 218 °C
26 | CCOC(=O)c1c(C)nc2cc(OC)c(OC)cc2c1-c1ccc(OC)c(OC)c1 | 147 to 148 °C
27 | COc1cc([N+](=O)[O-])ccc1C(=O)N1CCCCC1 | 104 °C
28 | CCCCCCOc1ccc(NC(=O)c2cnn(C)c2C)cc1C#N | 150 to 151 °C
29 | COc1ccc(CC2CCC3NCC(CO)CC3C2)cc1 (centres undefined) | 160 to 162 °C
30 | CN(C(N)=S)c1ccc(-c2ncn(-c3ccc(OC(F)(F)F)cc3)n2)cc1 | 142 to 152 °C
31 | COc1nc2cc(Cl)c(Cl)c([N+](=O)[O-])c2nc1OC | 184 to 186 °C
32 | CC(C)c1ccc(-c2nnc(-c3cccc(C(=O)O)c3)o2)cc1 | 202 to 204 °C
33 | Cc1ccccc1Nc1nc(N(C)c2ccccc2)c2sccc2n1 | 198 to 200 °C
34 | CCOC(=O)COc1ccc(SCc2cccc3[nH]c(-c4ccc(C(F)(F)F)cc4)cc23)cc1C | 85 to 88 °C
35 | Clc1ccc2c(C3CCNCC3)n[nH]c2c1 | 174 to 176 °C
36 | COCCCNC(=O)Nc1ccc(N(C)C)cc1C(=O)NCC1CCN(C(c2ccccc2)c2ccccc2)CC1 | 191 to 193 °C
37 | NC(=O)NCCC[C@H](NCC(O)C(O)C(O)C(O)CO)C(=O)O (some centres undefined) | 176 °C
38 | CN(C)c1ccccc1SCc1noc(CSc2ccc(Br)cc2)n1 | 78 °C
39 | COc1cc(Nc2c(C#N)cnc3cc(-c4cncc(CN5CCOCC5)c4)ccc23)c(Cl)cc1Cl | 141 to 143 °C

Now from value to compound:

Row | melting point | SMILES
40 | 162 °C | COC(=O)c1cc2ccc(Cl)c(Cl)c2o1
41 | 81 to 82 °C | O=C(NN=CC(Cl)(Cl)Cl)c1cccc(Oc2cccc(C(F)(F)F)c2)n1
42 | 161 to 165 °C | Oc1ccc(Cn2cc[nH]c2=S)cc1F
43 | 182 to 183 °C | N#Cc1ccc2ccccc2c1O
44 | 176 °C | OCc1cc2c(F)cccc2nc1Cl
45 | 182 °C | CC(C)(C)c1ccc(/C=C/C(=O)Nc2ccc3c(ccn3CCO)c2)cc1
46 | 140 to 141 °C | CCC1CN(Cc2ccccc2)C(=O)C(=C2SC=CS2)C1=O (centres undefined)
47 | 164 to 166 °C | O=C(/C=C/C=C/c1ccc(Cl)cc1)NCCCC(=O)NO
48 | 173 to 175 °C | NS(=O)(=O)c1ccc(-n2nc(C(F)(F)F)cc2-c2ccc(-c3cscn3)c(Cl)c2)cc1F
49 | 271 to 272 °C | O=C(O)c1ccc(N2CC(=O)N(S(=O)(=O)c3ccc(Cl)cc3)C2=O)cc1
50 | 83 °C | O=CC=C(Cl)c1cccc([N+](=O)[O-])c1
51 | 230 to 231 °C | N[C@H](Cc1cccc(C(=O)c2ccccc2)c1)C(=O)O
52 | 205 °C | O=C(CC1NC(=O)c2ccsc2-n2cccc21)c1ccccc1 (centres undefined)
53 | 66 °C | COC(=O)CCNC(=O)C(=Cc1ccccc1)CSC(=O)c1ccccc1
54 | 120 to 123 °C | CC(OCc1ccc(-c2ccccc2)cc1)C(=O)NO (centres undefined)
55 | 220 to 221 °C | CCOC(=O)c1cnc(Nc2ccccc2OCC)[nH]c1=O
56 | 121 to 122 °C | CC(=O)OCCOc1cccc(C(N)=O)c1
57 | 160 to 162 °C | O=C(Oc1ccccc1)c1ccc2c(c1)S(=O)(=O)NCN2C1CC1

Row | melting point | SMILES
58 | 152 to 155 °C | O=C1CN(NC(=O)Sc2ccccc2)C(=O)N1
59 | 146 to 148 °C | COc1nc(NC(=O)NS(=O)(=O)c2ccsc2C(=O)C2CC2)nc(OC)n1
60 | 106 to 107 °C | COc1ccc(NC(=O)CCCCCC(C)=O)cc1
61 | 146 °C | CSc1c(CO)sc2c1CCN(C)CC2c1ccccc1 (centres undefined)
62 | 120 to 123 °C | O=S(=O)(NCCNCC=Cc1ccc(Cl)cc1)c1cccc2cnccc12
63 | 116 to 125 °C | NNC(=O)Cc1ccccc1S(N)(=O)=O
64 | 165 to 167 °C | COc1ccc2c(O)c(C(=O)NCCO)nc(Cl)c2c1
65 | 193 to 196 °C | O=C(c1ccccc1)c1cc(Cl)cc2c(=O)cc[nH]c12
66 | 240 to 241 °C | COc1cc(OC)c(-c2cc3ccccc3s2)cc1/C=C/C(=O)c1ccc(C(N)=O)cc1
67 | 224 to 226 °C | NC(=O)NCc1ccc2c(c1)CN(C1CCC(=O)NC1=O)C2=O (centres undefined)
68 | > 260 °C | O=C1c2ccccc2C(=O)c2oc(-c3ccc(Cl)cc3)nc21
69 | 184 to 185 °C | CN1C(=O)C(NC(=O)c2ccccc2)C(C)(C)SC1=S (centres undefined)
70 | 110 °C | CN1CCC(c2c(O)cc(O)c3c(=O)cc(Sc4ccccc4Cl)oc23)C(O)C1 (centres undefined)
71 | 72 to 73 °C | CCC(=O)NCCC1CCc2ccn3nccc3c21 (centres undefined)
72 | 108 to 113 °C | N#CC(=C1CCCCCN1)c1ccccc1
73 | 98 to 99 °C | CC(C)c1ncc(CCCOc2nn(Cc3ccccc3)cc2CC(=O)O)c(Oc2ccc(Cl)cc2Cl)n1
74 | 174 °C | O=C(Nc1ccccc1)[NH+]([O-])Cc1ccncc1 (centres undefined)
